Measurements from patent publication US11365215B2, “Method for preventing, improving, or treating inflammatory bowel disease” (Research & Business Foundation Sungkyunkwan University, priority 2015, dated 2022).
Entries after “also recorded” stand apart in the source; their conditions may differ. Like-named read-outs stand apart in the source and are kept apart here. Peptide text beside a SMILES is read from it.

Experiments:
[1] = tested on: chemokines (CCL20, CCL2 and CX3CL1); test: Chemokine expression in large intestine tissues of DSS chronic colitis mice (Real-Time PCR); type: in vivo; conditions: oral 100 mg/kg daily for 10 days, sulfasalazine 500 mg/kg as comparison
Protocol: Meanwhile, as shown in FIGS. 11B-11D, mice suffering from chronic colitis induced by DSS were orally administered sulfasalazine in an amount of 500 mg/kg and compound 1.1 (SEQ ID NO: 2) in an amount of 100 mg/kg daily for 10 days. After 10 days of administration, large intestine tissues were obtained from the mice, and expression of chemokines (CCL20, CCL2 and CX3CL1) in the tissues was measured using real-time polymerase chain reaction (Real-Time PCR) as described above.

[2] = tested on: DSS-induced chronic colitis; test: Histological analyses of colon villi and mucous membranes in DSS-induced chronic colitis model; type: in vivo, mice; conditions: 100 mpk
[3] = Plasma concentration / pharmacokinetics after intravenous and oral administration; type: in vivo, Male SD rat
Protocol: Compound 1.1 (SEQ ID NO: 2) was administered to a rat intravenously (I.V., 5 mg/kg) or orally (50 mg/kg), and 24 hours after administration, the concentration of compound 1.1 (SEQ ID NO: 2) in plasma was measured (FIG. 18 and FIG. 19).

[4] = Tissue distribution after oral administration; type: in vivo; conditions: rat, oral 10 mg/kg
Protocol: Compound 1.1 (SEQ ID NO: 2) was orally administered to a rat at dose of 10 mg/kg, and after 2 hours and 8 hours, concentrations of compound 1.1 (SEQ ID NO: 2) were measured in the small intestinal tissue, large intestinal tissue, appendix tissue, retrimentum in small intestine and retrimentum in large intestine.

VEGF = test: qRT-PCR of VEGF in high-glucose HRMEC cells; type: cell-based; conditions: 30 mM glucose 48 hours, 10 nM and 50 nM
Protocol: In addition, HRMEC cells were treated with 5.5 mM of glucose for reference group. For experiment group, the HRMEC cells were treated with 30 mM of glucose for 48 hours to induce high blood glucose condition, and simultaneously treated with DMSO, compound 1.1 (SEQ ID NO: 2) (10 nM), and compound 1.1 (SEQ ID NO: 2) (50 nM). Changes in expression of Nox-4, VEGF, VEGFR1, VEGFR2, Ang1, Ang2, Tie-2, EPO, and EPOR proteins were quantitatively measured by qRT-PCR (quantitative RT-PCR). Expression of VEGF precursor as stimulating factor of new blood vessel was reduced by treatment with compound 1.1 (SEQ ID NO: 2) (FIG. 25C).

[5] = tested on: STZ-induced diabetic retinopathy; test: Active oxygen in retina of STZ-induced diabetic retinopathy model; type: in vivo; conditions: mice; 0.2 μg into one eye, three times; vs non-treated DR sample
Protocol: Streptozotocin (STZ) was administered at dose of 50 mg/kg to mice daily for 5 days, and a mouse model having induced diabetic retinopathy was obtained. The experimental group of the mouse model was injected with compound 1.1 (SEQ ID NO: 2), in an amount of 0.2 μg into one eye of the mouse, from the 20th day to 24th days from the administration, three times with two days of interval. After 50 days of administration, a DR sample that was not treated with compound 1.1 (SEQ ID NO: 2) and a DR sample treated with compound 1.1 (SEQ ID NO: 2) were collected.
The collected retina tissues from each mouse group as described above were stained with 5 μM of dihydroethidium and active oxygen rates from each group were measured (FIG. 27B). […] Accordingly, compound 1.1 (SEQ ID NO: 2) of the present invention is effectively used for preventing, alleviating or treating ophthalmic indications such as diabetic retinopathy from the biological experiments using mice.

[6] = tested on: experimental autoimmune encephalomyelitis; test: MOG-induced experimental autoimmune encephalomyelitis model; type: in vivo; conditions: EAE mice
Protocol: To confirm the effect of compound 1.1 (SEQ ID NO: 2) on multiple sclerosis, mice (10 weeks old, female) were sensitized with MOG35-55/[…] and PTX and an experimental autoimmune encephalomyelitis mouse model was obtained. Experimental methods were described in Oncotarget, Vol. 7 (2016), No. 13, 15382-15393, which is incorporated herein by reference.
As reference group, 10000 unit of Interferon-beta was hypodermically injected for 25 days, once every other day. Clinical score were measured and presented.

septicemia (CLP model) = test: Cecal ligation and puncture (CLP) septicemia model; type: in vivo; conditions: CLP mice; hypodermic 1 mg/kg, 2 hours after CLP, 12 hour intervals, three times
Excerpt: To confirm the effects of compound 1.1 (SEQ ID NO: 2) on septicemia, 10 mice in each group (7-week old, male) were anesthetized, and thereafter, the appendicies were exposed by incision of abdomen. The lower portion of ileocecal valve of the exposed appendix was tied and a single hole was made by using a 22 gage syringe needle. The treated appendix was reinserted into the abdominal cavity, and grafted using thread to obtain a septicemia-induced mice model (cecal ligation and pucture model, CLP model). Experimental methods were described in EMBO Mol Med. (2015) Mar. 12; 7(5):577-92, which is incorporated herein by reference.
Compound 1.1 (SEQ ID NO: 2) was hypodermically injected to the treated mice at dose of 1 mg/kg, after 2 hours from the CLP procedure, with 12 hour intervals, three times. As reference control, smaducin-6 was hypodermically injected at dose of 12 mg/kg as same method used for compound 1.1 (SEQ ID NO: 2). Survival rates of the mice from each group were measured (FIG. 29). Sham comparative group was not treated after incision of abdomen and anastomosis, CLP+PBS comparative group was treated with phosphate buffered saline (PBS) instead of drug compound after cecal ligation and puncture model was prepared. […]

[7] = plasma, iv, Male SD rat, single dose 5 mg/kg (i.v.)

CCCCCCCCCCCCCCCC(=O)N1CCC[C@H]1C(=O)N1CCC[C@H]1C(=O)NCC(=O)N[C@@H](Cc1ccc(O)cc1)C(=O)O [compound 1.1, (S)-3-(4-hydroxyphenyl)-2-(2-((S)-1-((S)-1-palmitoylpyrrolidine-2-carbonyl)pyrrolidine-2-carboxamido)acetamido)propanoic acid] (HELM PEPTIDE1{[CCCCCCCCCCCCCCCC(=O)[*:2]].P.P.G.Y}$$$$V2.0)
expression of chemokines (CCL20, CCL2 and CX3CL1) in large intestine tissues [1]: effective chemokine blockers
histological damages of large intestinal tissues ([2]; DSS-induced chronic colitis model): alleviated
recovery of the mucous membranes (Alcian blue) ([2]; in comparison to non-treated group and sulfasalazine 500 mpk): greater recovery of the mucous membranes
AUC(0-t) [3, 7]: 2140 ng·h/mL
Cmax [3, 7]: 6020 ng/mL
Tmax [3, 7]: 4.8 min
clearance [3, 7]: 45 mL/min/kg
Vd ([3]; plasma, iv, Male SD rat, single dose 5 mg/kg (i.v.), read-out: Vss): 5.4 ± 1 L/kg
Tmax ([3]; plasma, po, Male SD rat, single dose 50 mg/kg (p.o.)): 0 min
time within which the concentration decreased to 1/100 of the initial concentration ([3]; rat, intravenous 5 mg/kg): 1 to 2 h
concentration detected in blood ([3]; rat, intravenous 5 mg/kg, within 8 hours from the administration): very low concentration
detection in blood ([3]; rat, oral 50 mg/kg, after 30 minutes from the oral administration): not detected
concentration at 2 h ([4]; appendix tissue, 2 hours, read-out: Concentration in appendix tissue): 22.7 ± 2.56 ng/mL
concentration at 8 h ([4]; appendix tissue, read-out: Concentration in appendix tissue): 48.2 ± 46 ng/mL
concentration at 2 h ([4]; large intestinal tissue, 2 hours, read-out: Concentration in large intestinal tissue): 30 ± 10 ng/mL
concentration at 8 h ([4]; large intestinal tissue, read-out: Concentration in large intestinal tissue): 33.2 ± 28.8 ng/mL
Concentration in small intestinal tissue ([4]; 2 hours): 75 ± 70.2 ng/mL
concentration at 8 h ([4]; retrimentum in large intestine, read-out: Concentration in retrimentum in large intestine): 1280 ± 52.7 ng/mL
concentration at 2 h ([4]; retrimentum in small intestine, 2 hours, read-out: Concentration in retrimentum in small intestine): 1120 ± 217 ng/mL
concentration at 8 h ([4]; retrimentum in small intestine, read-out: Concentration in retrimentum in small intestine): 876 ± 900 ng/mL
concentration at 8 h ([4]; small intestinal tissue, read-out: Concentration in small intestinal tissue): 78.1 ± 59.9 ng/mL
expression of VEGF precursor (VEGF): reduced
active oxygen rate in retina tissues (dihydroethidium) [5]: reduced active oxygen rate
changes in body weights ([6]; compared to the EAE disease model group): did not have reduced weight
clinical score / treatment effect ([6]; hypodermic 1 mg/kg and 40 mg/kg every other day for 25 days, vs interferon-beta 10000 unit): effective in the treatment for multiple sclerosis; also recorded: the same or greater treatment effect and safety
survival rate (septicemia (CLP model)): 60%
